These results are taken from patent US20230045151A1, “COMPOSITIONS AND METHODS” (MONASH UNIVERSITY, priority 2020, published 2023).

Test [1] concerns C57BL6/J mice exposed intranasally to house dust mite extract (HDM). Nature of the test: HDM animal model of allergic airway inflammation. The class given is in vivo, mouse. The protocol: Mice received water as a control or L-tyrosine (reagent grade, ≥98% Sigma-Aldrich, St. Louis, Mo.) resuspended in drinking water under sterile conditions at the concentration of 100 mg/kg/day or 500 mg/kg/day (based on the assumption of a mouse consuming 4 ml of water daily). All mice received the treatment 2 weeks prior and throughout the experiment. […] Control mice received 200 μl of saline. […]. For experiments employing antibiotic treatment, 3-week old mice were treated with a combination enrofloxacin (10 mg/kg/day) and amoxicillin with clavulanic acid (1 mg/kg/day) for one week, followed by one week of only amoxicillin with clavulanic acid (1 mg/kg/day). Then, mice were then put on L-tyrosine diet in drinking water for two weeks followed by HDM exposure as before. During this time, mice were maintained on antibiotic treatment with amoxicillin/clavulanic acid until end of experiment.
Mice were anaesthetised by the inhalation of 4% isoflurane in oxygen for 3-5 minutes. 20 μg of protein content of crude house dust mite extract (HDM) (Greer Laboratories Inc., Lenoir, N.C.) in 20 μl of sterile phosphate-buffered saline (PBS) (Gibco™) was applied intranasally on days 0, 11, 12 and 13. Mice were humanely sacrificed with the lethal dose of pentobarbital (Streuli Pharma AG, Uznach, Switzerland) on day 14.
Bronchoalveolar lavage fluid (BALF) was collected by flushing airways with 0.5 ml PBS supplemented with 0.2% bovine serum albumin (Sigma-Aldrich, St. Louis, Mo.). Total cell number was determined with Coulter Counter (IG Instrumenten-Gesellschaft AG, Basel, Switzerland) while differential cell staining performed on cytospins stained with Diff-Quik solution (Dade Behring, Siemens Healthcare Diagnostics, Deerfield, Ill.). Percentages of neutrophils, macrophages, lymphocytes and eosinophils were assessed by counting 200 cells per sample.
Concentrations of interleukin-4, -5, -13, -17 and IFN-γ in culture supernatants were analysed with mouse Ready-Set-Go!™ ELISA kits (eBioscience™, San Diego, Calif.) according to manufacturer's instructions. To measure the levels of HDM-specific IgG1 and IgE in plasma, half area 96-well plates (Corning) were coated with HDM (10 μg in PBS) overnight at 4° C., followed by the incubation of samples for 2 hours at RT, and the addition of alkaline-phophatase-conjugated goat anti-mouse IgE or IgG1 (both from SouthernBiotech, Birmingham, Ala.; diluted at 1 μg ml-1 in PBS 0.2% BSA) for 2 hours at RT. 4-nitrophenyl phosphate sodium salt hexahydrate (pNPP) (Sigma) was used as a substrate, and the colorimetric reaction was read at 405 nm on the Synergy H1 microplate reader (Biotek, Luzern, Switzerland). To measure the levels of total IgA and IgM as well as hen egg lysozyme (HEL)-specific IgA and IgM in mouse faeces, faecal pellets were homogenized in 0.8 ml cold PBS, centrifuged at 400 g for 5 minutes to remove large debris, filtered through 40 μm cell strainer and centrifuged at 8000 g for 10 minutes to pellet bacteria. The supernatant was collected and loaded for 2 hours at RT on 96-well half area plates coated a day before at 4° C. with anti-IgA (Southern Biotech; 2 μg ml-1), anti-IgM (SouthernBiotech; 2 μg ml-1) or HEL protein (Sigma-Aldrich; 10 μg/ml). This step was followed by the addition of alkalinephophatase-conjugated goat anti-mouse IgA or IgM (both at 1 μg ml-1 in PBS 0.2% BSA) for 2 hours at RT. 4-nitrophenyl phosphate sodium salt hexahydrate (pNPP) (Sigma) was used as a substrate, and the colorimetric reaction was read at 405 nm as before.
Mediastinal lymph nodes were filtered through a 40 μm cell strainer, washed with PBS supplemented with 1% fetal bovine serum and 2 mM EDTA (Invitrogen) (MACS buffer). Lungs were finely cut with scissors, digested with Collagenase IV (Gibco™) in Iscove's modified Dulbecco's medium (IMDM, Gibco™) for 50 min at 37° C. and processed as the lymph nodes.

The next test has as its system pulmonary DCs. Nature of the test: DC:T cell co-culture (priming of naive OT-II cells / restimulation of effector Th cells). The class given is cell-based, mouse. As to conditions: pulmonary DCs from L-tyrosine-treated mice. The text has this:
Data from a-c are pooled from two experiments (a, b, n=10 biologically independent samples per group; c, n=9 biologically independent samples per group). Data in d represent technical replicates (n=6 left panel, n=5 right panel) from one experiment. Data in e are pooled from 3 independent experiments (n=6 per group). Data in f are pooled from two independent experiments (n=5 biologically independent samples per group). Data in g are pooled from two independent experiments (n=9 biologically independent samples per group). Data in h are pooled from two independent experiments (n=4 biologically independent samples per group). All data are presented as mean values±s.e.m. Statistical significance for a-d, f, g, was evaluated with unpaired Student's t-test (in the case of Gaussian distribution) or Mann-Whitney test (non-Gaussian distribution). Statistical significance for e, h was determined with One-Way analysis of variance (ANOVA) with Dunnett correction for multiple comparisons. Data distribution was assessed with D'Agostino & Pearson normality test. *p≤0.05, **p≤0.01, ***p≤0.001, ****p≤0.0001
DC: T cell co-cultures were set-up by sorting CD11c+ SiglecF− (DCs) and CD4+CD44+ T cells from the lungs of HDM-immunized mice on FACSAria III (BD Biosciences™, San Jose, Calif.). […]

Setting [2] is: L-tyrosine oral in drinking water.

The structures appear in SMILES notation.

For `N[C@@H](Cc1ccc(O)cc1)C(=O)O` [L-tyrosine], in test [1] (setting [2]), the “FoxP3+ Treg cells in the lungs” value is recorded as “not altered”, the “numbers of T helper cells in the lungs” value is listed as “not altered”, the “recruitment of DCs (lungs)” value is reported as “reduced” and the “recruitment of neutrophils (BALF)” value is “reduced”. Also, the “recruitment of eosinophils (BALF)” value in test [1] (L-tyrosine oral in drinking water, 2 weeks prior and throughout, vs water) is given as “reduced”. Further, the “IL-5 concentrations in culture supernatants of mediastinal LNs” value in test [1] (L-tyrosine oral in drinking water, not reaching statistical significance) is “trend towards a decrease”. Also, the “production of IL-13 by restimulated mediastinal LNs” value in test [1] (L-tyrosine oral in drinking water, restimulated with HDM for 4 days) is reported as “reduced”. The “protective effect of L-tyrosine under antibiotic treatment (eosinophils, DCs, IL-5 in BALF)” value in test [1] (L-tyrosine oral plus enrofloxacin and amoxicillin/clavulanic acid (microbiota depletion)) is reported as “abrogated”. Also, the “CCL20 concentrations in the BALF” value in test [1] (L-tyrosine-treated wild-type mice exposed to HDM) is listed as “reduced”. The “capacity of DCs to restimulate in vivo-primed effector T helper cells into an IL-13-producing subset” value with pulmonary DCs is “impaired”. In the test on pulmonary DCs (OT-II cells), the “capacity of DCs to prime naive CD4+ T cells into an IL-13-producing subset” value was “impaired”.
